Measured values: PMC2748089, “Bactericidal activities of the cationic steroid CSA-13 and the cathelicidin peptide LL-37 against Helicobacter pylori in simulated gastric juice” (BMC Microbiology, 2009)
Like-named read-outs stand apart in the source and are kept apart here. Ends that are not written are not given here.

Experiments:
Escherichia coli MG1655 = test: Bacteria killing assay after pre-incubation in simulated gastric juice, or with mucin or bile; details: E. coli MG1655, CFU count; for Antibacterial activity after pre-incubation at pH ~1.5 in the presence of pepsin: 3 h pre-incubation at 37°C in simulated gastric juice pH ~1.5 with pepsin 0.5 mg/ml; for Antibacterial activity after pre-incubation at pH ~1.5 in the presence of pepsin / Antibacterial activity after pre-incubation at pH ~1.5: versus PBS pH 7.4, pH adjusted to 7.4 before 1 h killing assay, means of three to four experiments; for Antibacterial activity after pre-incubation at pH ~1.5: 3 h pre-incubation at 37°C in simulated gastric juice pH ~1.5 without pepsin
H. pylori [1] = details: for Change of MBC on addition of 2 mM MgCl2: HEPES buffer with 2 mM MgCl2 versus HEPES, data not shown
[2] = system: Human gastric adenocarcinoma cells (ATCC; CRL-1739); details: 10 μg/ml, 1 hour; phase-contrast microscopy
Description: (§1) Figure 5 Evaluation of cell toxicity. Hemoglobin and LDH release from human red blood cells and human gastric adenocarcinoma cells (panel A and B respectively) after addition of LL-37 (circles), WLBU2 (diamonds), and CSA-13 (triangles), followed by incubation for 1 h at 37°C. Data shown are means ± SD of three experiments. Morphology of human gastric adenocarcinoma cells before (control) and after LL-37, WLBU2 and CSA-13 treatment was evaluated by phase-contrast microscopy (panel C). Data from one representative experiment are shown.
Human gastric adenocarcinoma cells (ATCC; CRL-1739) were maintained in DMEM (BioWhittaker) culture supplemented with 10% heat-inactivated fetal bovine serum (Hyclone) at 37°C and 5% CO2. For LDH release assay and microscope evaluation cells were plated in 24 well plates and grown to confluence. In all experiments, the medium was changed to serum-free media ~12 h prior to cell treatment with LL-37, WLBU2 and CSA-13 (0-200 μg/ml) in individual wells, for 1 hour. Cell culture medium was then collected, centrifuged (10 mins, 5000 rpm, RT) and subjected to LDH evaluation (LDH-cytotoxicity Assay Kit; BioVision Inc.)

pepsin = pepsin (Sus scrofa, UniProt P00791); test: LC-MS analytical characterization after incubation with pepsin at low pH; details: 3 h incubation with pepsin 0.5 mg/ml at pH ~1.5, 37°C; LC-MS (C18, ESI positive); data from one experiment
Description: The total ion chromatogram (TIC) is presented for each sample condition with an inset mass-to-charge (m/z) spectra showing intensity for the boxed TIC peaks. The molecular weight of intact LL-37 is 4494, which can be observed with multiple charges (m/z = 4 MW = 1124, m/z = 5 MW = 900, etc) in positive ion mode. The molecular weight of CSA13 is 678, which can be observed directly and with multiple charges. Data from one experiment are shown.
Analytical characterization was performed on the CSA-13 and LL-37 suspensions after 3H incubation with pepsin (0.5 mg/ml) at low pH (~1,5) at 37°C, using the Shimadzu (Columbia, MD) instrument (the LC-MS system consisted of a LC-20AB solvent delivery system and SIL-20A auto-sampler coupled to dual wavelength UV-Vis detector and a LCMS 2010EV single quadrupole mass spectrometer), coupled to a Shimadzu Premier C18 column (150 mm × 4.6 mm i.d., 5 μm particle size). The mobile phase flow rate was 1 ml/min with a starting ratio of 90% mobile phase A (water) and 10% mobile phase B (acetonitrile) both with 0.1% (v/v) formic acid. The analytical method consisted of the following steps: (i) sample injection and holding at 10% B for 5 min, (ii) linear gradient from 10% to 90% B over 15 minutes, (iii) holding at 90% B for 5 minutes, (iv) isocratic step to 10% B and holding for 5 minutes prior to the next sample injection. […]

H. pylori [3] = test: MIC of conventional antibiotics against H. pylori on Muller-Hinton agar; type: cell-based, Helicobacter pylori; details: for MIC: Helicobacter pylori; for Susceptibility classification by MIC: all H. pylori isolates, resistant when MIC above 4 μg/ml for AMX, 16 μg/ml for TET
[4] = system: Human gastric adenocarcinoma cells (ATCC; CRL-1739); test: LDH release from gastric adenocarcinoma cells; type: cell-based; details: bactericidal concentrations against H. pylori and E. coli MG1655 in saline and nutrient containing buffer
Text: Figure 5 Evaluation of cell toxicity. […] Data shown are means ± SD of three experiments. […] Data from one representative experiment are shown.

human red blood cells = system: human red blood cells
Description: as §1
The hemolytic activity of LL-37, WLBU-2 and CSA-13 (0-200 μg/ml), against human red blood cells (RBC) was tested using erythrocytes suspended in PBS. RBC prepared from fresh blood (Hematocrit ~5%) were incubated for 1 h at 37°C after addition of test molecules. Relative hemoglobin concentration in supernatants after centrifugation at 2000 × g was monitored by measuring the absorbance at 540 nm. 100% hemolysis was taken from samples in which 2% Triton X-100 was added.

drug-resistant bacteria = details: previous susceptibility study; cited from earlier work
[5] = HEPES buffer, 6 hours incubation at 37°C, inoculum 10^8 CFU/ml, all isolated strains of H. pylori
[6] = H. pylori clinical strains 5, 6, 7, resistant when MIC above 1 μg/ml for CLR, 16 μg/ml for Metronidazole
[7] = 96 h, H. pylori clinical strain 1, Muller-Hinton agar with 5% sheep blood, 4 days at 35°C, microaerophilic, read-out: MIC
[8] = 96 h, H. pylori clinical strain 2, Muller-Hinton agar with 5% sheep blood, 4 days at 35°C, microaerophilic, read-out: MIC
[9] = 96 h, H. pylori clinical strain 3, Muller-Hinton agar with 5% sheep blood, 4 days at 35°C, microaerophilic, read-out: MIC
[10] = 96 h, H. pylori clinical strain 4, Muller-Hinton agar with 5% sheep blood, 4 days at 35°C, microaerophilic, read-out: MIC
[11] = 96 h, H. pylori clinical strain 5, Muller-Hinton agar with 5% sheep blood, 4 days at 35°C, microaerophilic, read-out: MIC
[12] = 96 h, H. pylori clinical strain 6, Muller-Hinton agar with 5% sheep blood, 4 days at 35°C, microaerophilic, read-out: MIC
[13] = 96 h, H. pylori clinical strain 7, Muller-Hinton agar with 5% sheep blood, 4 days at 35°C, microaerophilic, read-out: MIC

Chain of pepsin (P00791 60-385): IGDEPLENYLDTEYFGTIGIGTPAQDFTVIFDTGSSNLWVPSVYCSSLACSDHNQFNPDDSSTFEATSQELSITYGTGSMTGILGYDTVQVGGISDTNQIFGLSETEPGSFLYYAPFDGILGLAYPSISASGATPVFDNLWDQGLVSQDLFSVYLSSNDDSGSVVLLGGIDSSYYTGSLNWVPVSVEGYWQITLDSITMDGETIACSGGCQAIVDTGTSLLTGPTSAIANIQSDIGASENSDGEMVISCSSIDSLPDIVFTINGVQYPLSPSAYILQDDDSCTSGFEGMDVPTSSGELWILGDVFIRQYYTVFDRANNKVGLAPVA

CC[C@H](C)[C@H](NC(=O)[C@H](CCCCN)NC(=O)[C@H](CCC(=O)O)NC(=O)[C@H](CCCCN)NC(=O)[C@H](CO)NC(=O)[C@H](CCCCN)NC(=O)[C@H](CCCNC(=N)N)NC(=O)[C@H](Cc1ccccc1)NC(=O)[C@H](Cc1ccccc1)NC(=O)[C@H](CC(=O)O)NC(=O)CNC(=O)[C@H](CC(C)C)NC(=O)[C@@H](N)CC(C)C)C(=O)NCC(=O)N[C@@H](CCCCN)C(=O)N[C@@H](CCC(=O)O)C(=O)N[C@@H](Cc1ccccc1)C(=O)N[C@@H](CCCCN)C(=O)N[C@@H](CCCNC(=N)N)C(=O)N[C@H](C(=O)N[C@H](C(=O)N[C@@H](CCC(N)=O)C(=O)N[C@@H](CCCNC(=N)N)C(=O)N[C@H](C(=O)N[C@@H](CCCCN)C(=O)N[C@@H](CC(=O)O)C(=O)N[C@@H](Cc1ccccc1)C(=O)N[C@@H](CC(C)C)C(=O)N[C@@H](CCCNC(=N)N)C(=O)N[C@@H](CC(N)=O)C(=O)N[C@@H](CC(C)C)C(=O)N[C@H](C(=O)N1CCC[C@H]1C(=O)N[C@@H](CCCNC(=N)N)C(=O)N[C@H](C(=O)N[C@@H](CCC(=O)O)C(=O)N[C@@H](CO)C(=O)O)[C@@H](C)O)C(C)C)[C@@H](C)CC)C(C)C)[C@@H](C)CC [LL-37]
Antibacterial activity after pre-incubation at pH ~1.5 in the presence of pepsin (Escherichia coli MG1655): lost
average MBC (H. pylori [1]; 6 h): 300 ± 232 µg/mL
average MBC (H. pylori [1]; [5]): 8.9 ± 4.03 µg/mL
Adenocarcinoma cell morphology versus control cells [2]: no visible difference
Stability to pepsin at low pH (mass spectrometry analysis) (pepsin): extensive degradation

Cc1ncc([N+](=O)[O-])n1CCO [Metronidazole, metronidazole]
Resistance classification by MIC (H. pylori [3]; H. pylori clinical strain 4, resistant when MIC above 16 μg/ml for Metronidazole): resistant
Resistance classification by MIC (H. pylori [3]; [6]): resistant
MIC (H. pylori [3]; [7]): 0.19 µg/mL
MIC (H. pylori [3]; [8]): 0.094 µg/mL
MIC (H. pylori [3]; [9]): 0.5 µg/mL
MIC (H. pylori [3]; [10]): 32 µg/mL
MIC (H. pylori [3]; [11]): 96 µg/mL
MIC (H. pylori [3]; [12]): 32 µg/mL
MIC (H. pylori [3]; [13]): 48 µg/mL
MIC (H. pylori [3]; ATCC43504, 96 h, read-out: MIC): 64 µg/mL

CCCCCCCCNCCC[C@@H](C)[C@H]1CC[C@H]2[C@@H]3[C@H](OCCCN)C[C@@H]4C[C@H](OCCCN)CC[C@]4(C)[C@H]3C[C@H](OCCCN)[C@]12C [CSA-13]
Antibacterial activity after pre-incubation at pH ~1.5 in the presence of pepsin (Escherichia coli MG1655): unchanged
Antibacterial activity after pre-incubation at pH ~1.5 (Escherichia coli MG1655): unchanged
Bactericidal activity in the presence of purified gastric mucin (Escherichia coli MG1655; mucin 1000 μg/ml, 1 h killing assay at 37°C): less inhibited by mucin
average MBC (H. pylori [1]): 2.98 ± 3.11 µg/mL
MBC after pre-incubation with buffer at low pH containing pepsin or mucin (H. pylori [1]; H. pylori ATCC 43504, 1 h pre-incubation at 37°C in simulated gastric juice pH ~1.5 with pepsin or mucin): nearly unchanged
Change of MBC on addition of 2 mM MgCl2 (H. pylori [1]; H. pylori ATCC 43504): four fold increase
average MBC (H. pylori [1]; [5]): 0.31 ± 0.25 µg/mL
MBC (minimum bactericidal concentration), range over strains (H. pylori [1]; nutrient-containing media, clinical isolates of H. pylori): 0.275 to 8.9 µg/mL
Bactericidal concentrations relative to concentrations causing dysfunction of adenocarcinoma cell membranes [4]: below concentrations causing dysfunction of adenocarcinoma cell membranes
Bactericidal concentrations relative to minimal hemolytic concentration (human red blood cells; bactericidal concentrations against H. pylori and E. coli MG1655 in saline and nutrient containing buffer): below its minimal hemolytic concentration
Adenocarcinoma cell morphology versus control cells [2]: no visible difference
Stability to pepsin at low pH (mass spectrometry analysis) (pepsin): not changed
MIC50/MBC50 ratio (drug-resistant bacteria): 1

CC1(C)S[C@@H]2[C@H](NC(=O)[C@H](N)c3ccc(O)cc3)C(=O)N2[C@H]1C(=O)O [AMX, Amoxicillin]
MIC (H. pylori [3]; [7]): 0.094 µg/mL
MIC (H. pylori [3]; [8]): < 0.016 µg/mL
MIC (H. pylori [3]; [9]): 0.016 µg/mL
MIC (H. pylori [3]; [10]): 0.032 µg/mL
MIC (H. pylori [3]; [11]): 0.25 µg/mL
MIC (H. pylori [3]; [12]): 0.032 µg/mL
MIC (H. pylori [3]; [13]): 0.047 µg/mL
MIC (H. pylori [3]; ATCC43504, 96 h, read-out: MIC): 0.016 µg/mL
Susceptibility classification by MIC (H. pylori [3]): susceptible

CN(C)[C@@H]1C(O)=C(C(N)=O)C(=O)[C@@]2(O)C(O)=C3C(=O)c4c(O)cccc4[C@@](C)(O)[C@H]3C[C@@H]12 [TET, tetracycline]
Susceptibility classification by MIC (H. pylori [3]): susceptible

RRWVRRVRRWVRRVVRVVRRWVRR [WLBU2]
Antibacterial activity after pre-incubation at pH ~1.5 (Escherichia coli MG1655): not significantly changed
Change of MBC on addition of 2 mM MgCl2 (H. pylori [1]; H. pylori ATCC 43504): four fold increase
Hemoglobin release from human red blood cells (human red blood cells; RBC in PBS, hematocrit ~5%, 0-200 μg/ml, 1 h at 37°C, absorbance at 540 nm, 100% = 2% Triton X-100, means of three experiments): strongest hemolytic agent
Adenocarcinoma cell morphology versus control cells [2]: no visible difference

CC[C@H]1OC(=O)[C@H](C)[C@@H](O[C@H]2C[C@@](C)(OC)[C@@H](O)[C@H](C)O2)[C@H](C)[C@@H](O[C@@H]2O[C@H](C)C[C@H](N(C)C)[C@H]2O)[C@](C)(OC)C[C@@H](C)C(=O)[C@H](C)[C@@H](O)[C@]1(C)O [CLR, clarithromycin]
Resistance classification by MIC (H. pylori [3]; [6]): resistant
MIC (H. pylori [3]; 96 h): 0.125 µg/mL
MIC (H. pylori [3]; [8]): 0.19 µg/mL
MIC (H. pylori [3]; [9]): 0.25 µg/mL
MIC (H. pylori [3]; [10]): 0.047 µg/mL
MIC (H. pylori [3]; [11]): 64 µg/mL
MIC (H. pylori [3]; [12]): 1.5 µg/mL
MIC (H. pylori [3]; [13]): 1.5 µg/mL
MIC (H. pylori [3]; ATCC43504, 96 h, read-out: MIC): 0.094 µg/mL
